# Experiments:
# [1] = test system: DMS-273; assay: Cytotoxicity against human DMS273 cells; type: functional
# [2] = test system: DMS-114; assay: Cytotoxicity against human DMS114 cells; type: functional
# [3] = test system: Raji; assay: Induction of EBA-early antigen production in human Raji cells at 10^-7 M; type: cell-based; conditions: human gammaherpesvirus 4
# [4] = Cytotoxicity against human Raji cells assessed as viability at 1 uM in presence of TPA; type: cell-based; conditions: read-out: Activity
# [5] = Cytotoxicity against human Raji cells assessed as viability at 1 uM; type: cell-based; conditions: read-out: Activity
# [6] = Cytotoxicity against human Raji cells assessed as viability at 10^-7 M in presence of TPA; type: cell-based; conditions: read-out: Activity
# [7] = Cytotoxicity against human Raji cells assessed as viability at 10^-7 M; type: cell-based; conditions: read-out: Activity
# [8] = test system: Raji; assay: Inhibition of TPA-induced EBA-early antigen production in human Raji cells at 1 uM; type: cell-based; design: scale not given: the % may be the effect or the level left; conditions: human gammaherpesvirus 4
# [9] = test system: Raji; assay: Induction of EBA-early antigen production in human Raji cells at 1 uM; type: cell-based; conditions: human gammaherpesvirus 4
# [10] = test system: Raji; assay: Inhibition of TPA-induced EBA-early antigen production in human Raji cells at 10^-7 M; type: cell-based; design: scale not given: the % may be the effect or the level left; conditions: human gammaherpesvirus 4
# [11] = biological target: Protein kinase C alpha type (Homo sapiens, UniProt P17252); assay: Inhibition of [3H]PDBu binding to PKC alpha C1A peptide
# [12] = biological target: Protein kinase C beta type (Homo sapiens, UniProt P05771); assay: Inhibition of [3H]PDBu binding to PKC beta C1A peptide
# Protein kinase C beta type, sequence (P05771 whole entry): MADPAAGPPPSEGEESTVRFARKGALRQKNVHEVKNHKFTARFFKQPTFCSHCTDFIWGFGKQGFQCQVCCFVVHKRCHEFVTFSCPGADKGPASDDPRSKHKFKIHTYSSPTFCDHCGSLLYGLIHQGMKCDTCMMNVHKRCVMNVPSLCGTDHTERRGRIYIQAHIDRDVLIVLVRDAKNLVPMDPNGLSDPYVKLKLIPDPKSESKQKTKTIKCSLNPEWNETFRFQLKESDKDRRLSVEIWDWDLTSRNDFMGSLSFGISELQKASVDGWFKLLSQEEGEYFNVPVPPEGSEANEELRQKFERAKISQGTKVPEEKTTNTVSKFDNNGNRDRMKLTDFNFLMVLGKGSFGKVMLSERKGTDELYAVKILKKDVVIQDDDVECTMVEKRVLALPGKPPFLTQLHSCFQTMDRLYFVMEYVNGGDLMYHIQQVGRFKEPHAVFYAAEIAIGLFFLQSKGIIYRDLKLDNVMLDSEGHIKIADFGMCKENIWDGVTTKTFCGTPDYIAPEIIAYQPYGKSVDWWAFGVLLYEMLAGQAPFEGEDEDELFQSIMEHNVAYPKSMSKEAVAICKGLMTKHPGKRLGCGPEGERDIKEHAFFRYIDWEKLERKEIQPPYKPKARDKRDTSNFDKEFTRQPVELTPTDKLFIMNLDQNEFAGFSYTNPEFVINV
# [13] = biological target: Protein kinase C gamma type (Homo sapiens, UniProt P05129); assay: Inhibition of [3H]PDBu binding to PKC gamma C1A peptide
# [14] = biological target: T1, Protein kinase C delta type (Homo sapiens, UniProt Q05655); assay: Inhibition of [3H]PDBu binding to PKC delta C1A peptide
# T1 sequence (Q05655 whole entry): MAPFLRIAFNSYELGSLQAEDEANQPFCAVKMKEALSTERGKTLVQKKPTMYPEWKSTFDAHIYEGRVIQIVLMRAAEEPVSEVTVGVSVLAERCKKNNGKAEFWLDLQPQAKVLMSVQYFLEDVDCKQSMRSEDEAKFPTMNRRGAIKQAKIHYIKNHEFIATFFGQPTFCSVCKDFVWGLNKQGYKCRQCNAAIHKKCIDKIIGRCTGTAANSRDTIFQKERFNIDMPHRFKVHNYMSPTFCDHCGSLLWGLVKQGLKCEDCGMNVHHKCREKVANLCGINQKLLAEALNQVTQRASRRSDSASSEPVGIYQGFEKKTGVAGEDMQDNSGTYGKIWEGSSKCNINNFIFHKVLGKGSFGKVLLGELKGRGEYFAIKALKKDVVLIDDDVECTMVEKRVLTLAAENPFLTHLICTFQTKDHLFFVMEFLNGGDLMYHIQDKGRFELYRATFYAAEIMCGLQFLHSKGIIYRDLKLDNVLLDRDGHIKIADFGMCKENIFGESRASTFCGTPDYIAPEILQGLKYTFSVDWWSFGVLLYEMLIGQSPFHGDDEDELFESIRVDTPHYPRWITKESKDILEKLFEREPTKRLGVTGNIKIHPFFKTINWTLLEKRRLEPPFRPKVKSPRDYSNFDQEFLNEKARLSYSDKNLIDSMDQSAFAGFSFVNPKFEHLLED
# [15] = biological target: T1, Protein kinase C delta type; assay: Inhibition of [3H]PDBu binding to PKC delta C1B peptide
# [16] = biological target: T2, Protein kinase C epsilon type (Homo sapiens, UniProt Q02156); assay: Inhibition of [3H]PDBu binding to PKCepsilon C1B peptide
# T2 sequence (Q02156 whole entry): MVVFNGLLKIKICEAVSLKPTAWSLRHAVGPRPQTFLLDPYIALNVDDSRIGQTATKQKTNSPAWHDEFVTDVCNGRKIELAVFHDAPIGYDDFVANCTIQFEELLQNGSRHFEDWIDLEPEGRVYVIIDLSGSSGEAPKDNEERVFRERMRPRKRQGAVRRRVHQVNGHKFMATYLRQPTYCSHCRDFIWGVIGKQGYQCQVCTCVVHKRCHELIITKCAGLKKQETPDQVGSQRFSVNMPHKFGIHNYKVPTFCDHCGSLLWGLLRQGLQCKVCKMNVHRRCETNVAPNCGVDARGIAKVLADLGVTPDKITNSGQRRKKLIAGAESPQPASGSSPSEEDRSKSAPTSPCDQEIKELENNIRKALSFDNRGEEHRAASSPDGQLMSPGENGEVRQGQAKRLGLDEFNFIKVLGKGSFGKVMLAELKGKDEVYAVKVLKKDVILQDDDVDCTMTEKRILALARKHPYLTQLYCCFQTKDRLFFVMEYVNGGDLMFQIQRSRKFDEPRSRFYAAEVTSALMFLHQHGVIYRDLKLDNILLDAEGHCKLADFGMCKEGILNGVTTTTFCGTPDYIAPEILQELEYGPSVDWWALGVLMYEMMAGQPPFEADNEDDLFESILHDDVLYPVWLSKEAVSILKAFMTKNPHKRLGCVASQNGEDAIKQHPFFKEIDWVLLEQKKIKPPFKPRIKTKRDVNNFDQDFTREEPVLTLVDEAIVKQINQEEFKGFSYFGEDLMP
# [17] = biological target: Protein kinase C eta type (Homo sapiens, UniProt P24723); assay: Inhibition of [3H]PDBu binding to PKCeta C1B peptide
# Protein kinase C eta type, sequence (P24723 whole entry): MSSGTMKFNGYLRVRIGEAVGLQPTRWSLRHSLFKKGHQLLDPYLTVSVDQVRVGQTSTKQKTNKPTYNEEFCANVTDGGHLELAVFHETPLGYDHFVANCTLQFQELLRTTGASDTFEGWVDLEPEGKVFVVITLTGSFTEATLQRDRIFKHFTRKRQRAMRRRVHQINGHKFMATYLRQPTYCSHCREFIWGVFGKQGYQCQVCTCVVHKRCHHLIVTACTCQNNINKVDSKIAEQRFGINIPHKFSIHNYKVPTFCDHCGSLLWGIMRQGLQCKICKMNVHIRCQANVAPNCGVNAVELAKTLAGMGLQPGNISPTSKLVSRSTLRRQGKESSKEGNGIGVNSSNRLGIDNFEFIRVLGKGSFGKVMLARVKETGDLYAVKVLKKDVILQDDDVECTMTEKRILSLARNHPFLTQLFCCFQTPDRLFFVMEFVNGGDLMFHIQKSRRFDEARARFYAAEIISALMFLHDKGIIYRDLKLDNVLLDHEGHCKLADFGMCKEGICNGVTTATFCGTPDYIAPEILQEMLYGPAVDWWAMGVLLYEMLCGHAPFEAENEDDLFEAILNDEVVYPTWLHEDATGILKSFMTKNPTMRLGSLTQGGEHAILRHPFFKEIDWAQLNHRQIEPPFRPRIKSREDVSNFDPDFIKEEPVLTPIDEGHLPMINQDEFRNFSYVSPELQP
# [18] = biological target: Protein kinase C theta type (Homo sapiens, UniProt Q04759); assay: Inhibition of [3H]PDBu binding to PKCtheta C1B peptide
# Protein kinase C theta type, sequence (Q04759 whole entry): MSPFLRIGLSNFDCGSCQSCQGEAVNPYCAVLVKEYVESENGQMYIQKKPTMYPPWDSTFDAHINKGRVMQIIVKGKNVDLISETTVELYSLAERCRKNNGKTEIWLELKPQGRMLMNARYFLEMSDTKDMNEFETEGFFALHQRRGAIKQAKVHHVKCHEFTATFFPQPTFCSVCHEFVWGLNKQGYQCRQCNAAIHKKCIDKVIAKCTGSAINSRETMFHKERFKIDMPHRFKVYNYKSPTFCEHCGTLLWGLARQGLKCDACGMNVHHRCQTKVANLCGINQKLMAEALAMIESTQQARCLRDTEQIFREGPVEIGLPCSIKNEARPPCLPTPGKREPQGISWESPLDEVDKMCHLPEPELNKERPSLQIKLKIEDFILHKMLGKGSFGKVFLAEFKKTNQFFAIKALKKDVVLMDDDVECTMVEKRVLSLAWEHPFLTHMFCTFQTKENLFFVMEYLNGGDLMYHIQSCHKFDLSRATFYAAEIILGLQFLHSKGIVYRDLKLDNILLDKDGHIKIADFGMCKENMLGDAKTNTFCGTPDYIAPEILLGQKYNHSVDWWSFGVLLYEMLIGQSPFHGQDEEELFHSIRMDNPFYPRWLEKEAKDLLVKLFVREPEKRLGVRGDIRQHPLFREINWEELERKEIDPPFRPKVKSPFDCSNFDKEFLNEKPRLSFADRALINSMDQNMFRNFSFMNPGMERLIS
# [19] = Cytotoxicity against human HBC4 cells; type: functional
# [20] = Cytotoxicity against human BSY1 cells; type: functional; conditions: BSY-1
# [21] = test system: MDA-MB-231; assay: Cytotoxicity against human MDA-MB-231 cells; type: functional
# [22] = test system: SF-295; assay: Cytotoxicity against human SF295 cells; type: functional
# [23] = test system: HCC 2998; assay: Cytotoxicity against human HCC2998 cells; type: functional
# [24] = test system: NCI-H460; assay: Cytotoxicity against human NCI-H460 cells; type: functional
# [25] = test system: A549; assay: Cytotoxicity against human A549 cells; type: functional
# [26] = test system: LOX IMVI; assay: Cytotoxicity against human LOXIMVI cells; type: functional
# [27] = test system: St-4; assay: Cytotoxicity against human St-4 cells; type: functional
# [28] = test system: MKN-45; assay: Cytotoxicity against human MKN45 cells; type: functional
# [29] = test system: PC-3; assay: Cytotoxicity against human PC3 cells; type: functional
# [30] = test system: MCF7; assay: Cytotoxicity against human MCF7 cells; type: functional
# [31] = test system: SF-268; assay: Cytotoxicity against human SF268 cells; type: functional
# [32] = test system: SF-539; assay: Cytotoxicity against human SF539 cells; type: functional
# [33] = test system: U-251; assay: Cytotoxicity against human U251 cells; type: functional
# [34] = test system: SNB-75; assay: Cytotoxicity against human SNB75 cells; type: functional
# [35] = test system: SNB-78; assay: Cytotoxicity against human SNB78 cells; type: functional
# [36] = test system: KM12; assay: Cytotoxicity against human KM12 cells; type: functional
# [37] = test system: HT-29; assay: Cytotoxicity against human HT-29 cells; type: functional
# [38] = test system: HCT-15; assay: Cytotoxicity against human HCT15 cells; type: functional
# [39] = test system: HCT-116; assay: Cytotoxicity against human HCT116 cells; type: functional
# [40] = test system: NCI-H23; assay: Cytotoxicity against human NCI-H23 cells; type: functional
# [41] = test system: NCI-H226; assay: Cytotoxicity against human NCI-H226 cells; type: functional
# [42] = test system: NCI-H522; assay: Cytotoxicity against human NCI-H522 cells; type: functional
# [43] = test system: OVCAR-3; assay: Cytotoxicity against human OVCAR-3 cells; type: functional
# [44] = test system: OVCAR-4; assay: Cytotoxicity against human OVCAR4 cells; type: functional
# [45] = test system: OVCAR-5; assay: Cytotoxicity against human OVCAR5 cells; type: functional
# [46] = test system: OVCAR-8; assay: Cytotoxicity against human OVCAR8 cells; type: functional
# [47] = Cytotoxicity against human RXF631L cells; type: functional; conditions: RXF 631
# [48] = test system: SK-OV-3; assay: Cytotoxicity against human SKOV3 cells; type: functional
# [49] = test system: ACHN; assay: Cytotoxicity against human ACHN cells; type: functional
# [50] = Cytotoxicity against human MKN1 cells; type: functional; conditions: MKN-1
# [51] = test system: MKN-7; assay: Cytotoxicity against human MKN7 cells; type: functional
# [52] = test system: MKN-28; assay: Cytotoxicity against human MKN28 cells; type: functional
# [53] = test system: MKN-74; assay: Cytotoxicity against human MKN74 cells; type: functional
# [54] = test system: DU-145; assay: Cytotoxicity against human DU145 cells; type: functional
smiles,measurement,setting,value
CC1(C)CC[C@@H]2CC(=O)O[C@@H](CO)CC(=O)O[C@@H]3C[C@@H](CCCCc4cccc(O)c4)O[C@@]1(C3)O2,GI50,[1],12.6 µM
same,GI50,[2],16.2 µM
same,Activity,[3],9.4%
same,viability at 1 µM,[4],60%
same,viability at 1 µM,[5],60%
same,viability at 0.1 µM,[6],60%
same,viability at 0.1 µM,[7],60%
same,Activity,[8],7.5%
same,Activity,[9],10.4%
same,Activity,[10],10.1%
same,Ki,[11],0.063 µM
same,Ki,[12],0.089 µM
same,Ki,[13],0.039 µM
same,Ki,[14],0.14 µM
same,Ki,[15],0.0074 µM
same,Ki,[16],0.025 µM
same,Ki,[17],0.0044 µM
same,Ki,[18],0.004 µM
same,GI50,[19],0.468 µM
same,GI50,[20],13.5 µM
same,GI50,[21],2.45 µM
same,GI50,[22],8.71 µM
same,GI50,[23],3.72 µM
same,GI50,[24],2.51 µM
same,GI50,[25],4.79 µM
same,GI50,[26],1.82 µM
same,GI50,[27],2.82 µM
same,GI50,[28],4.68 µM
same,GI50,[29],11 µM
same,GI50,[30],19.1 µM
same,GI50,[31],14.8 µM
same,GI50,[32],10.7 µM
same,GI50,[33],14.8 µM
same,GI50,[34],15.8 µM
same,GI50,[35],19.1 µM
same,GI50,[36],13.8 µM
same,GI50,[37],17 µM
same,GI50,[38],17.4 µM
same,GI50,[39],16.2 µM
same,GI50,[40],13.2 µM
same,GI50,[41],15.5 µM
same,GI50,[42],13.5 µM
same,GI50,[43],16.6 µM
same,GI50,[44],17.8 µM
same,GI50,[45],11.2 µM
same,GI50,[46],19.5 µM
same,GI50,[47],16.2 µM
same,GI50,[48],20.4 µM
same,GI50,[49],12 µM
same,GI50,[50],13.8 µM
same,GI50,[51],16.6 µM
same,GI50,[52],18.2 µM
same,GI50,[53],17.4 µM
same,GI50,[54],14.1 µM
O=C1C[C@H](CO)OC(=O)C[C@H]2CCC[C@]3(C[C@@H](C[C@@H](CCCCc4ccccc4)O3)O1)O2,Ki,[11],2.4 µM
same,Ki,[12],3.5 µM
same,Ki,[13],1.6 µM
same,Ki,[14],6.8 µM
same,Ki,[15],0.17 µM
same,Ki,[16],0.82 µM
same,Ki,[17],0.18 µM
same,Ki,[18],0.17 µM
CC1(C)CC[C@@H]2CC(=O)O[C@@H](CO)CC(=O)O[C@@H]3C[C@@H](CCCCc4ccccc4)O[C@@]1(C3)O2,GI50,[1],10.5 µM
same,GI50,[2],14.1 µM
same,Activity,[3],9.7%
same,viability at 1 µM,[4],60%
same,viability at 1 µM,[5],60%
same,viability at 0.1 µM,[6],60%
same,viability at 0.1 µM,[7],60%
same,Activity,[8],13.1%
same,Activity,[9],10.5%
same,Activity,[10],15.2%
same,Ki,[11],0.12 µM
same,Ki,[12],0.14 µM
same,Ki,[13],0.08 µM
same,Ki,[14],0.13 µM
same,Ki,[15],0.0098 µM
same,Ki,[16],0.037 µM
same,Ki,[17],0.012 µM
same,Ki,[18],0.0081 µM
same,GI50,[19],0.525 µM
same,GI50,[20],6.76 µM
same,GI50,[21],2.14 µM
same,GI50,[22],7.24 µM
same,GI50,[23],2.95 µM
same,GI50,[24],1.48 µM
same,GI50,[25],3.24 µM
same,GI50,[26],6.76 µM
same,GI50,[27],0.891 µM
same,GI50,[28],0.813 µM
same,GI50,[29],5.5 µM
same,GI50,[30],16.2 µM
same,GI50,[31],12.9 µM
same,GI50,[32],10.5 µM
same,GI50,[33],12.3 µM
same,GI50,[34],12 µM
same,GI50,[35],15.8 µM
same,GI50,[37],11.2 µM
same,GI50,[38],16.6 µM
same,GI50,[39],12.3 µM
same,GI50,[40],11.2 µM
same,GI50,[41],11.5 µM
same,GI50,[42],13.2 µM
same,GI50,[43],13.5 µM
same,GI50,[44],15.1 µM
same,GI50,[45],11 µM
same,GI50,[46],17.8 µM
same,GI50,[47],13.8 µM
same,GI50,[48],17 µM
same,GI50,[49],10 µM
same,GI50,[50],12.6 µM
same,GI50,[51],11.5 µM
same,GI50,[52],16.6 µM
same,GI50,[53],14.8 µM
same,GI50,[54],12 µM

# Reference: ChEMBL document CHEMBL1255183, “Role of the phenolic hydroxyl group in the biological activities of simplified analogue of aplysiatoxin with antiproliferative activity” (Bioorg Med Chem Lett, 2010)
